Test results: patent US20070021419A1, “2-Aminophenyl-4-phenylpyrimidines as kinase inhibitors” (Cyclacel Limited, priority 2003, published 2007)

Columns and labels:
[1] = target: CDK1/cyclin B (Homo sapiens, UniProt P06493); assay: Kinase assay, radioactive phosphate incorporation, CDK1/cyclin B; type: biochemical; conditions: 100 μM ATP, 30° C.; read-out: Kinase inhibition IC50 CDK1/cyclin B
Procedure: (§1) The compounds from the examples above were investigated for their ability to inhibit the enzymatic activity of various protein kinases. This was achieved by measurement of incorporation of radioactive phosphate from ATP into appropriate polypeptide substrates. Recombinant protein kinases and kinase complexes were produced or obtained commercially. Assays were performed using 96-well plates and appropriate assay buffers (typically 25 mM β-glycerophosphate, 20 mM MOPS, 5 MM EGTA, 1 mM DTT, 1 mM Na3VO3, pH 7.4), into which were added 2-4 μg of active enzyme with appropriate substrates. The reactions were initiated by addition of Mg/ATP mix (15 mM MgCl2+100 μM ATP with 30-50 kBq per well of [γ-^32P]-ATP) and mixtures incubated as required at 30° C. Reactions were stopped on ice, followed by filtration through p81 filterplates or GF/C filterplates (Whatman Polyfiltronics, Kent, UK). After washing 3 times with 75 mM aq orthophosphoric acid, plates were dried, scintillant added and incorporated radioactivity measured in a scintillation counter (TopCount, Packard Instruments, Pangbourne, Berks, UK). Compounds for kinase assay were made up as 10 mM stocks in DMSO and diluted into 10% DMSO in assay buffer.

[2] = target: CDK2/cyclin A (Homo sapiens, UniProt P24941); assay: Kinase assay, radioactive phosphate incorporation, CDK2/cyclin A; type: biochemical; conditions: 100 μM ATP, 30° C.; read-out: Kinase inhibition IC50 CDK2/cyclin A
Procedure: as §1

[3] = target: CDK2/cyclin E (Homo sapiens, UniProt P24941); assay: Kinase assay, radioactive phosphate incorporation, CDK2/cyclin E; type: biochemical; conditions: 100 μM ATP, 30° C.; read-out: Kinase inhibition IC50 CDK2/cyclin E
Procedure: as §1

[4] = target: CDK4/cyclin D1 (Homo sapiens, UniProt P11802); assay: Kinase assay, radioactive phosphate incorporation, CDK4/cyclin D1; type: biochemical; conditions: 100 μM ATP, 30° C.; read-out: Kinase inhibition IC50 CDK4/cyclin D1
Procedure: as §1

[5] = target: GSK3β (Homo sapiens, UniProt P49841); assay: Kinase assay, radioactive phosphate incorporation, GSK3β; type: biochemical; conditions: 100 μM ATP, 30° C.; read-out: Kinase inhibition IC50 GSK3β
Procedure: as §1

[6] = tested on: A549; assay: 72-h MTT cytotoxicity assay, A549; type: cell-based; conditions: Homo sapiens, read-out: 72-h MTT IC50 A549, A549 cell line
Procedure: (§2) The compounds from the examples above were subjected to a standard cellular proliferation assay using human tumour cell lines obtained from the ATCC (American Type Culture Collection, 10801 University Boulevard, Manessas, Va. 20110-2209, USA). Standard 72-h MTT (thiazolyl blue; 3-[4,5-dimethylthiazol-2-yl]-2,5-diphenyltetrazolium bromide) assays were performed. In short: cells were seeded into 96-well plates according to doubling time and incubated overnight at 37° C. Test compounds were made up in DMSO and a 1/3 dilution series prepared in 100 μL cell media, added to cells (in triplicates) and incubated for 72 ho at 37° C. MTT was made up as a stock of 5 mg/mL in cell media and filter-sterilised. Media was removed from cells followed by a wash with 200 μL PBS. MTT solution was then added at 20 μL per well and incubated in the dark at 37° C. for 4 h. MTT solution was removed and cells again washed with 200 μL PBS. MTT dye was solubilised with 200 μL per well of DMSO with agitation.

[7] = tested on: HT29; assay: 72-h MTT cytotoxicity assay, HT29; type: cell-based; conditions: Homo sapiens, HT-29, read-out: 72-h MTT IC50 HT29, HT29 cell line
Procedure: as §2

[8] = tested on: Saos-2; assay: 72-h MTT cytotoxicity assay, Saos-2; type: cell-based; conditions: Homo sapiens, read-out: 72-h MTT IC50 Saos-2, Saos-2 cell line
Procedure: as §2

[9] = tested on: transformed human cell lines (A549, HT29, Saos-2); assay: 72-h MTT cytotoxicity assay, average of cell lines; type: cell-based; conditions: read-out: 72-h MTT IC50 Average, average of A549, HT29, Saos-2
Procedure: as §2

[10] = target: CDK9/cyclin T1 (Homo sapiens, UniProt P50750); assay: Kinase assay, radioactive phosphate incorporation, CDK9/cyclin T1; type: biochemical; conditions: 100 μM ATP, 30° C.; read-out: Kinase inhibition IC50 CDK9/cyclin T1
Procedure: as §1

[11] = target: CDK7/cyclin H (Homo sapiens, UniProt P50613); assay: Kinase assay, radioactive phosphate incorporation, CDK7/cyclin H; type: biochemical; conditions: 100 μM ATP, 30° C.; read-out: Kinase inhibition IC50 CDK7/cyclin H
Procedure: as §1

Chain of GSK3β (P49841 whole entry, species assumed): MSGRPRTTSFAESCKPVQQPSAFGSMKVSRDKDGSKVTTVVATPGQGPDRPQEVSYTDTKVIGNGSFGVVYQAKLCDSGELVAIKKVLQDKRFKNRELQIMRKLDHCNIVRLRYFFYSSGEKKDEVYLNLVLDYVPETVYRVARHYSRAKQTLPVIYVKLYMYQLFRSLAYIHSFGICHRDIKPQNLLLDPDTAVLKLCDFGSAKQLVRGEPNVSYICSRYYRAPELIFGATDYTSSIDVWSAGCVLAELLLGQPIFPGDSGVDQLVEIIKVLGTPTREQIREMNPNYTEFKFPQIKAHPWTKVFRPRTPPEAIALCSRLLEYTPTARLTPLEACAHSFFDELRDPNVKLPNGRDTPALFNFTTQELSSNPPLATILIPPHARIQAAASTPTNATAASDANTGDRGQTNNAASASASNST
Chain of CDK4/cyclin D1 (P11802 whole entry, species assumed): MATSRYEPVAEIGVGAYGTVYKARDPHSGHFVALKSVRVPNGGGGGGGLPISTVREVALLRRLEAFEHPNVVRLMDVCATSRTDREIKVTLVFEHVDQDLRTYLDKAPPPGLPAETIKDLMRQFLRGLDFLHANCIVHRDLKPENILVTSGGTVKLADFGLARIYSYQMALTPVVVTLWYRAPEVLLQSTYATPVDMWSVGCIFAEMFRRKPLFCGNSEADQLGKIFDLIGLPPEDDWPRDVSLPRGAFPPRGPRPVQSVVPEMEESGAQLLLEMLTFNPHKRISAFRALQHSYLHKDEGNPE
Chain of CDK4/cyclin D1 (P24385 whole entry partner, species assumed): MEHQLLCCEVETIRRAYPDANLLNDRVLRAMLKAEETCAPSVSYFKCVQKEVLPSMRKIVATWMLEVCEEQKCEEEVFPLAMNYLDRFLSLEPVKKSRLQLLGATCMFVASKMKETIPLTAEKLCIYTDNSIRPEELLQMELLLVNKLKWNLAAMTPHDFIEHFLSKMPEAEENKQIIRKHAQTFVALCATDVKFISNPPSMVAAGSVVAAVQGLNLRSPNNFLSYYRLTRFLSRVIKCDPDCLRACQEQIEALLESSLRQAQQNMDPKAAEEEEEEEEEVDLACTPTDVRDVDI
Chain of CDK9/cyclin T1 (P50750 whole entry, species assumed): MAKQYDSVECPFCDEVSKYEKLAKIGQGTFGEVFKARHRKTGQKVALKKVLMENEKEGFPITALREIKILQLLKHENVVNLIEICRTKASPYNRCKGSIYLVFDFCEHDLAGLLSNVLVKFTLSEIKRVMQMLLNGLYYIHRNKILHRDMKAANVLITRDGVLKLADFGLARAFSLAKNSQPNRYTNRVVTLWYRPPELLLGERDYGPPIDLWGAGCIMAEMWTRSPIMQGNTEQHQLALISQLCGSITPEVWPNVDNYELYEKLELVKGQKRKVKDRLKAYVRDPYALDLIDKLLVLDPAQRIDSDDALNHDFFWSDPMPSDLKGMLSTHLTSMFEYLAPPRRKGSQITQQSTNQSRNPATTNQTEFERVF
Chain of CDK9/cyclin T1 (O60563 whole entry partner, species assumed): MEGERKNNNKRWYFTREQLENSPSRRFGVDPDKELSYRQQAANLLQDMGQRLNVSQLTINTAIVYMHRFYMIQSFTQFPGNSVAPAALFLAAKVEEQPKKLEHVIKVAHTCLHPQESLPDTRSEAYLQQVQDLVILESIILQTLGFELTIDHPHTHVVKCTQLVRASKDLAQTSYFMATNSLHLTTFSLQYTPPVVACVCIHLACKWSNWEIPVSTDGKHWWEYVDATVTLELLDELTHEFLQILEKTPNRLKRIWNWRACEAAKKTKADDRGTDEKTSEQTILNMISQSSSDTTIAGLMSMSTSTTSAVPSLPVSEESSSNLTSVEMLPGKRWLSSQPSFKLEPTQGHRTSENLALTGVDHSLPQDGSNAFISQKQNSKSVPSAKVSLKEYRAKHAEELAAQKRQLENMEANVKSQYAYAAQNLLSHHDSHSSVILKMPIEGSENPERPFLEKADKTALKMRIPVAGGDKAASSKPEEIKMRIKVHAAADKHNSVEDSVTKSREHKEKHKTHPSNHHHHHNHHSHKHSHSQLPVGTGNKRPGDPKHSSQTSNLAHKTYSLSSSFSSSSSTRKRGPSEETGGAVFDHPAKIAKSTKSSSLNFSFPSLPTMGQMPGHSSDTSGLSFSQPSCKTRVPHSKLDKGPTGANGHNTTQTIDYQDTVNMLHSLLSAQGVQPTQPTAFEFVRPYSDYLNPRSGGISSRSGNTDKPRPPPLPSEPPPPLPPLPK
Chain of CDK1/cyclin B (P06493 whole entry, species assumed): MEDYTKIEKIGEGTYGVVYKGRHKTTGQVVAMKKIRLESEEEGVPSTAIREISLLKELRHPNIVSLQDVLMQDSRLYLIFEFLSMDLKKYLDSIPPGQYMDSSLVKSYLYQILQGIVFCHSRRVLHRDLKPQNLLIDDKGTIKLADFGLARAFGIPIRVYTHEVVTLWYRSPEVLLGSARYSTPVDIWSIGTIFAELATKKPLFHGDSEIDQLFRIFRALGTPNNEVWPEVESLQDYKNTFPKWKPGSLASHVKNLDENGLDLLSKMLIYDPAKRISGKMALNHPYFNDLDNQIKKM
Chain of CDK1/cyclin B (P14635 whole entry partner, species assumed): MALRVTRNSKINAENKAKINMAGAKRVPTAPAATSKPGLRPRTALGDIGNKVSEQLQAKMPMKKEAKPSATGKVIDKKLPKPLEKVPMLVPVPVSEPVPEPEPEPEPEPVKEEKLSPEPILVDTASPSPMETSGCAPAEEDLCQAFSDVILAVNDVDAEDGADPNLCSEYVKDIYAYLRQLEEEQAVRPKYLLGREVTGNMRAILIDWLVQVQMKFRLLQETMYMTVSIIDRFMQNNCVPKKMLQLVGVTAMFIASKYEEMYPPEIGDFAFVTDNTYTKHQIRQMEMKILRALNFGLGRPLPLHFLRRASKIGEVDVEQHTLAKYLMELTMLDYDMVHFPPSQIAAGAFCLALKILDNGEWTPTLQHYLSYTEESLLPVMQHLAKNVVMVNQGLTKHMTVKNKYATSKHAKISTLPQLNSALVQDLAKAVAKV
Chain of CDK7/cyclin H (P50613 whole entry, species assumed): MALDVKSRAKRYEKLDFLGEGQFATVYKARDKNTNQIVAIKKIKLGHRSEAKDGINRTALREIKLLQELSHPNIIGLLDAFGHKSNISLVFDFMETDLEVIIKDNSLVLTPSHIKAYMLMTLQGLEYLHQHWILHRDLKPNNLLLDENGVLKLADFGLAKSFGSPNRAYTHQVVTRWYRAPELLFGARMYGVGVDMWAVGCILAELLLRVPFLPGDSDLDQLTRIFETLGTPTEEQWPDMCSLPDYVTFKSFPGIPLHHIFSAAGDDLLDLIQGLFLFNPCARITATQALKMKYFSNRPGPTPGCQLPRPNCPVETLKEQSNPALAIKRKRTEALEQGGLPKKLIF
Chain of CDK7/cyclin H (P51946 whole entry partner, species assumed): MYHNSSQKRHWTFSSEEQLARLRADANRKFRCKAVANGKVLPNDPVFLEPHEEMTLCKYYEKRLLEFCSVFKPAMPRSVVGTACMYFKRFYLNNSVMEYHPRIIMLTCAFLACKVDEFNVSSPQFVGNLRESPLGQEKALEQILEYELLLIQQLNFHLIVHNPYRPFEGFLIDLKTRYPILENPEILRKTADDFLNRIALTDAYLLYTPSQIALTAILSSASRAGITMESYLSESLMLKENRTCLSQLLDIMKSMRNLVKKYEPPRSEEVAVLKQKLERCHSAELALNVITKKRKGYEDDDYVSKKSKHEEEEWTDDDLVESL

| Compound | IC50 [1] | IC50 [2] | IC50 [3] | IC50 [4] | IC50 [5] | IC50 [6] | IC50 [7] | IC50 [8] | IC50 [9] | IC50 [10] | IC50 [11] |
| --- | --- | --- | --- | --- | --- | --- | --- | --- | --- | --- | --- |
| Oc1ccc(Nc2nccc(-c3cccc(Cl)c3)n2)cc1 [Compound 17, 4-[4-(3-Chloro-phenyl)-pyrimidin-2-ylamino]-phenol] | 5.3 µM | 2.1 µM | 0.39 µM | – | – | – | – | – | – | – | – |
| Oc1cccc(Nc2nccc(-c3cccc(Cl)c3)n2)c1 [Compound 18, 3-[4-(3-Chloro-phenyl)-pyrimidin-2-ylamino]-phenol] | 5.5 µM | 3.1 µM | 1.1 µM | – | – | – | – | – | – | – | – |
| CN(C)c1ccc(Nc2nccc(-c3ccc(Cl)c(Cl)c3)n2)cc1 [Compound 20, N-[4-(3,4-Dichloro-phenyl)-pyrimidin-2-yl]-N′,N′-dimethyl-benzene-1,4-diamine] | 3.9 µM | – | 6.1 µM | 20 µM | 1.1 µM | 35.5 µM | 35.8 µM | 24.7 µM | 32 ± 6.3 µM | – | – |
| Oc1ccc(Nc2nccc(-c3ccc(Cl)c(Cl)c3)n2)cc1 [Compound 21, 4-[4-(3,4-Dichloro-phenyl)-pyrimidin-2-ylamino]-phenol] | 29 µM | – | 3.5 µM | 29 µM | – | 11.7 µM | 15.1 µM | 41.5 µM | 22.8 ± 16.3 µM | 5.4 µM | – |
| CCNc1cccc(-c2ccnc(Nc3ccc(OC)cc3)n2)c1 [Compound 25, [4-(3-Ethylamino-phenyl)-pyrimidin-2-yl]-(4-methoxy-phenyl)-amine] | 0.17 µM | 0.03 µM | 0.039 µM | 0.17 µM | 0.14 µM | – | – | – | – | 0.005 µM | 0.94 µM |
| CCNc1cccc(-c2ccnc(Nc3ccc([N+](=O)[O-])cc3)n2)c1 [Compound 26, [4-(3-Ethylamino-phenyl)-pyrimidin-2-yl]-(4-nitro-phenyl)-amine] | 1.3 µM | 0.13 µM | 0.033 µM | – | 0.04 µM | 1.7 µM | 1.2 µM | 1.1 µM | 1.3 ± 0.3 µM | 0.059 µM | 20 µM |
| CS(=O)(=O)NCc1cccc(-c2ccnc(Nc3cccc([N+](=O)[O-])c3)n2)c1 [Compound 40, N-{3-[2-(3-Nitro-phenylamino)-pyrimidin-4-yl]-benzyl}-methanesulfonamide] | 0.27 µM | – | 0.42 µM | – | 0.005 µM | 1.6 µM | 1.2 µM | 4.3 µM | 2.4 ± 1.7 µM | 1.6 µM | 0.88 µM |
| COc1ccc(Nc2nccc(-c3cccc(Cn4cncn4)c3)n2)cc1 [Compound 42, (4-Methoxy-phenyl)-[4-(3-[1,2,4]triazol-1-ylmethyl-phenyl)-pyrimidin-2-yl]-amine] | 11 µM | – | 3.2 µM | 2 µM | 0.087 µM | 10.6 µM | 6.7 µM | 25.8 µM | 14.4 ± 10.1 µM | 0.22 µM | 1.1 µM |
| Clc1ccc(Nc2nccc(-c3cccc(CNCc4ccccc4)c3)n2)cn1 [Compound 48, {4-[3-(Benzylamino-methyl)-phenyl]-pyrimidin-2-yl}-(6-chloro-pyridin-3-yl)-amine] | – | 9.8 µM | 1.3 µM | 3.5 µM | 0.32 µM | 13.4 µM | 5.1 µM | 20.4 µM | 13 ± 7.7 µM | 1.2 µM | 1.7 µM |
| COc1ccc(Nc2nccc(-c3cccc(Cn4ccnc4)c3)n2)cn1 [Compound 59, [4-(3-Imidazol-1-ylmethyl-phenyl)-pyrimidin-2-yl]-(6-methoxy-pyridin-3-yl)-amine] | 0.12 µM | 0.06 µM | 1.3 µM | 3.8 µM | 0.07 µM | – | – | – | – | 0.04 µM | 0.5 µM |
| CN(C)Cc1cccc(-c2ccnc(Nc3cccc([N+](=O)[O-])c3)n2)c1 [Compound 71, [4-(3-Dimethylaminomethyl-phenyl)-pyrimidin-2-yl]-(3-nitro-phenyl)-amine] | 0.01 µM | 0.03 µM | 0.01 µM | 0.2 µM | 0.03 µM | – | – | – | – | 0.003 µM | 0.03 µM |
